Measurements reported in US10799507B2, “5-(7H-pyrrolo[2,3-d]pyrimidin-4-yl)-5-azaspiro[2.5]octane-8-carboxylic acid derivatives as novel JAK kinase inhibitors” (LEO Pharma A/S, priority 2017, dated 2020).

Key:
Assay type in all cases: biochemical
JAK3 = JAK3 (Homo sapiens (Human), UniProt P52333); test: JAK kinase assay (HTRF), JAK3; conditions: catalytic domain, ATP at Km (2 μM)
Procedure: (§1) Human baculovirus-expressed JAK1, 2, 3 and TYK2 were purchased from Carna Biosciences, Inc. All four purified enzymes contain only the catalytic domain. JAK1 (aa 850-1154) and TYK2 (aa 871-1187) are expressed with an N-terminally fused GST-tag, and JAK2 and JAK3 with an N-terminally fused His-tag.
(§2) Inhibition of phosphorylation of a synthetic peptide was measured in an HTRF-based assay using the TK substrate-Biotin from the Cisbio HTRFKinEASE TK kit. First, 2 μl of TK solution (TK substrate-biotin in kinase buffer [1× enzymatic buffer from HTRFKinEASE TK kit, 1 mM DTT]) is added to a plate containing 1 μl prediluted compound (final assay concentration DMSO: 0.75%). Then, 5 μl kinase-ATP mix (prepared in kinase buffer) is added to the wells and the plates are incubated at RT for 20-30 min. For all four kinases a concentration of ATP that corresponded to the Km for ATP was used. The final concentrations of buffers, substrate, kinase and ATP were: JAK1: 50 mM Hepes buffer pH 7.0, 0.01% BSA, 10 mM MgCl2, 1 mM DTT, 7 μM ATP, 50 nM SEB, 1 μM TK Substrate-Biotin and 5 ng JAK1; JAK2: 50 mM Hepes buffer pH 7.0, 0.01% BSA, 5 mM MgCl2, 1 mM DTT, 4 μM ATP, 1 μM TK Substrate-Biotin and 0.1 ng JAK2; JAK3: 50 mM Hepes buffer pH 7.0, 0.01% BSA, 5 mM MgCl2, 1 mM DTT, 2 μM ATP, 1 μM TK Substrate-Biotin and 0.3 ng JAK3; TYK2: 50 mM Hepes buffer pH 7.0, 0.01% BSA, 5 mM MgCl2, 1 mM DTT, 13 μM ATP, 50 nM SEB, 1 μM TK Substrate-Biotin and 0.8 ng TYK2. Thereafter, the kinase reaction is stopped by adding 4 μl detection mix (final concentrations: 50 mM Hepes buffer pH 7.0, 0.01% BSA, 0.8 M KF, 20 mM EDTA, 42 nM Streptavidin-XL665 and 1:400 STK Ab Cryptate) and the plates are incubated overnight in the dark. The HTRF signal is read using an Envision plate reader.
(§3) In Table 1 selected JAK kinase inhibitory activities are listed along with analytical tR and observed M+H^+ data (UPLC-MS method 7).

TYK2 = TYK2 (Homo sapiens (Human), UniProt P29597); test: JAK kinase assay (HTRF), TYK2; conditions: catalytic domain, ATP at Km (13 μM)
Sequence of TYK2 (P29597 871-1187): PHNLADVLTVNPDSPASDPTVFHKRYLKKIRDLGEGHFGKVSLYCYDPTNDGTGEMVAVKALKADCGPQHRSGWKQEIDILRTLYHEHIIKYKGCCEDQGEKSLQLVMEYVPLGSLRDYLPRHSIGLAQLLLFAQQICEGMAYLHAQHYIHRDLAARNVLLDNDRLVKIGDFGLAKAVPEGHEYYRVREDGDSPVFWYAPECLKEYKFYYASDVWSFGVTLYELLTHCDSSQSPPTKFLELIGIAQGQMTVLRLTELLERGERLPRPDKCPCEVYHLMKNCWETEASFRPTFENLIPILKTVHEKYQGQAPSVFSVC
Procedure: as §1, §2, §3

JAK2 = JAK2 (Homo sapiens (Human), UniProt O60674); test: JAK kinase assay (HTRF), JAK2; conditions: catalytic domain, ATP at Km (4 μM)
Sequence of JAK2 (O60674 849-1124): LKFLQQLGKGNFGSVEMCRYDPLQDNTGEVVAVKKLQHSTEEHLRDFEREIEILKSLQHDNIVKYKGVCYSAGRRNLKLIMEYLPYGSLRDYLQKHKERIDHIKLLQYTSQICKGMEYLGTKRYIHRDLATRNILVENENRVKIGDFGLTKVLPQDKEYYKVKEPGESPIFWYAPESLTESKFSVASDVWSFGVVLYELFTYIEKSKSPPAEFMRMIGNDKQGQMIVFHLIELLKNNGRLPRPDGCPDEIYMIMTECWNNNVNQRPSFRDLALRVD
Procedure: as §1, §2

JAK1 = JAK1 (Homo sapiens (Human), UniProt P23458); test: JAK kinase assay (HTRF), JAK1; conditions: catalytic domain, ATP at Km (7 μM)
Sequence of JAK1 (P23458 850-1154): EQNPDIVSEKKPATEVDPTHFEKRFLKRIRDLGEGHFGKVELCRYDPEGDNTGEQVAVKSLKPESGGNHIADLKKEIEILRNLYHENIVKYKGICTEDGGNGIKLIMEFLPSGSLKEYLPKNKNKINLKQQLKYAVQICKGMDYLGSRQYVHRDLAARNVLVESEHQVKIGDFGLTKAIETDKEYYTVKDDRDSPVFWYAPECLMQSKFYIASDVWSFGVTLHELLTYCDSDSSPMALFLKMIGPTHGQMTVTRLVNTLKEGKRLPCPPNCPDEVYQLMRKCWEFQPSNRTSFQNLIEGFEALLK
Procedure: as §1, §2

Sequence of JAK3 (P52333 822-1111): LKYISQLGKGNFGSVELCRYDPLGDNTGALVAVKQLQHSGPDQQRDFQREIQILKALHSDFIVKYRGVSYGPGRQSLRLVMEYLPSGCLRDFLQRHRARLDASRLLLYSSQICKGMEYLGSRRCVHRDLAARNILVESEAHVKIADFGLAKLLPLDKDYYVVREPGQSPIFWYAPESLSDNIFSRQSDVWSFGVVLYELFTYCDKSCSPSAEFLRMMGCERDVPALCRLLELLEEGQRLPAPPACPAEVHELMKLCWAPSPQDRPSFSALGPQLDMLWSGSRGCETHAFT

Compound	EC50 (JAK3)	EC50 (TYK2)	EC50 (JAK2)	EC50 (JAK1)
O=C(NCC1CC(F)(F)C1)[C@H](O)CNC(=O)[C@H]1CCN(c2ncnc3[nH]ccc23)CC12CC2 (single isomer, unassigned) [Example 130]	51 nM	490 nM	45.9 nM	23.2 nM
NS(=O)(=O)c1ccc(CNC(=O)C2CCN(c3ncnc4[nH]ccc34)CC23CC3)cc1 (centres unmarked) [Example 33, 5-(7H-pyrrolo[2,3-d]pyrimidin-4-yl)-N-[(4-sulfamoylphenyl)methyl]-5-azaspiro[2.5]octane-8-carboxamide]	6 nM	28.9 nM	5 nM	1.9 nM
O=C(NC[C@H](O)c1ccc(F)cn1)[C@H]1CCN(c2ncnc3[nH]ccc23)CC12CC2 [Example 46, (8S)-N-[(2S)-2-(5-fluoro-2-pyridyl)-2-hydroxy-ethyl]-5-(7H-pyrrolo[2,3-d]pyrimidin-4-yl)-5-azaspiro[2.5]octane-8-carboxamide]	23.8 nM	48.1 nM	8.8 nM	3.1 nM
N#Cc1ccc([C@H](CO)NC(=O)[C@H]2CCN(c3ncnc4[nH]ccc34)CC23CC3)nc1 [Example 47, (8S)-N-[(1R)-1-(5-cyano-2-pyridyl)-2-hydroxy-ethyl]-5-(7H-pyrrolo[2,3-d]pyrimidin-4-yl)-5-azaspiro[2.5]octane-8-carboxamide]	32.4 nM	176 nM	13.7 nM	3.1 nM
O=C(NCc1ccc(F)cc1)C1CCN(c2ncnc3[nH]ccc23)CC12CC2 (centres unmarked) [Example 53, N-[(4-fluorophenyl)methyl]-5-(7H-pyrrolo[2,3-d]pyrimidin-4-yl)-5-azaspiro[2.5]octane-8-carboxamide]	20.8 nM	106 nM	8.9 nM	3.6 nM
CC(NC(=O)C1CCN(c2ncnc3[nH]ccc23)CC12CC2)c1ccc(F)cc1 (centres unmarked) [Example 61, N-[1-(4-fluorophenyl)ethyl]-5-(7H-pyrrolo[2,3-d]pyrimidin-4-yl)-5-azaspiro[2.5]octane-8-carboxamide]	22.1 nM		7.2 nM	4.3 nM
COc1ccc([C@H](C)NC(=O)C2CCN(c3ncnc4[nH]ccc34)CC23CC3)cc1 (stereo partly drawn) [Example 66, N-[(1S)-1-(4-methoxyphenyl)ethyl]-5-(7H-pyrrolo[2,3-d]pyrimidin-4-yl)-5-azaspiro[2.5]octane-8-carboxamide]	40.7 nM		8.3 nM	4.8 nM
N#Cc1cccc(CNC(=O)C2CCN(c3ncnc4[nH]ccc34)CC23CC3)c1 (centres unmarked) [Example 70, N-[(3-cyanophenyl)methyl]-5-(7H-pyrrolo[2,3-d]pyrimidin-4-yl)-5-azaspiro[2.5]octane-8-carboxamide]	32.6 nM		8.6 nM	5.5 nM
C[C@@H](NC(=O)C1CCN(c2ncnc3[nH]ccc23)CC12CC2)c1ccc(F)c(F)c1 (stereo partly drawn) [Example 113, N-[(1R)-1-(3,4-difluorophenyl)ethyl]-5-(7H-pyrrolo[2,3-d]pyrimidin-4-yl)-5-azaspiro[2.5]octane-8-carboxamide]	51.2 nM		19.4 nM	11.6 nM
C[C@@H](NC(=O)C1CCN(c2ncnc3[nH]ccc23)CC12CC2)c1cccc(C#N)c1 (stereo partly drawn) [Example 117, N-[(1R)-1-(3-cyanophenyl)ethyl]-5-(7H-pyrrolo[2,3-d]pyrimidin-4-yl)-5-azaspiro[2.5]octane-8-carboxamide]	73.8 nM		21.6 nM	12.4 nM
C[C@@H](NC(=O)C1CCN(c2ncnc3[nH]ccc23)CC12CC2)c1ccc(F)c(C#N)c1 (stereo partly drawn) [Example 123, N-[(1R)-1-(3-cyano-4-fluoro-phenyl)ethyl]-5-(7H-pyrrolo[2,3-d]pyrimidin-4-yl)-5-azaspiro[2.5]octane-8-carboxamide]	63.9 nM		21.4 nM	16.3 nM
COc1ccc([C@@H](C)NC(=O)C2CCN(c3ncnc4[nH]ccc34)CC23CC3)cc1F (stereo partly drawn) [Example 124, N-[(1R)-1-(3-fluoro-4-methoxy-phenyl)ethyl]-5-(7H-pyrrolo[2,3-d]pyrimidin-4-yl)-5-azaspiro[2.5]octane-8-carboxamide]	144 nM		59.7 nM	18.6 nM
COc1cc(F)ccc1[C@@H](C)NC(=O)C1CCN(c2ncnc3[nH]ccc23)CC12CC2 (stereo partly drawn) [Example 131, N-[(1R)-1-(4-fluoro-2-methoxy-phenyl)ethyl]-5-(7H-pyrrolo[2,3-d]pyrimidin-4-yl)-5-azaspiro[2.5]octane-8-carboxamide]	247 nM		30.3 nM	24.6 nM
C[C@@H](NC(=O)C1CCN(c2ncnc3[nH]ccc23)CC12CC2)c1cccc(F)c1 (stereo partly drawn) [Example 134, N-[(1R)-1-(3-fluorophenyl)ethyl]-5-(7H-pyrrolo[2,3-d]pyrimidin-4-yl)-5-azaspiro[2.5]octane-8-carboxamide]	171 nM		80.6 nM	32.8 nM
COc1cccc([C@@H](C)NC(=O)C2CCN(c3ncnc4[nH]ccc34)CC23CC3)c1 (stereo partly drawn) [Example 139, N-[(1R)-1-(3-methoxyphenyl)ethyl]-5-(7H-pyrrolo[2,3-d]pyrimidin-4-yl)-5-azaspiro[2.5]octane-8-carboxamide]	99.3 nM		61.2 nM	39.2 nM
N#Cc1ccc([C@H](O)CNC(=O)[C@@H]2CCN(c3ncnc4[nH]ccc34)CC23CC3)cc1 [Example 142, (8R)-N-[(2S)-2-(4-cyanophenyl)-2-hydroxy-ethyl]-5-(7H-pyrrolo[2,3-d]pyrimidin-4-yl)-5-azaspiro[2.5]octane-8-carboxamide]	278 nM		179 nM	42.7 nM
COc1cc([C@@H](C)NC(=O)C2CCN(c3ncnc4[nH]ccc34)CC23CC3)ccc1F (stereo partly drawn) [Example 143, N-[(1R)-1-(4-fluoro-3-methoxy-phenyl)ethyl]-5-(7H-pyrrolo[2,3-d]pyrimidin-4-yl)-5-azaspiro[2.5]octane-8-carboxamide]	199 nM		90.4 nM	45.1 nM
COc1cncc([C@@H](C)NC(=O)C2CCN(c3ncnc4[nH]ccc34)CC23CC3)c1 (stereo partly drawn) [Example 144, N-[(1R)-1-(5-methoxy-3-pyridyl)ethyl]-5-(7H-pyrrolo[2,3-d]pyrimidin-4-yl)-5-azaspiro[2.5]octane-8-carboxamide]	157 nM		80.6 nM	48.5 nM
C[C@H](NC(=O)[C@H]1CCN(c2ncnc3[nH]ccc23)CC12CC2)[C@@H](O)c1cccc(F)c1 [Example 150, (8S)-N-[(1S,2S)-2-(3-fluorophenyl)-2-hydroxy-1-methyl-ethyl]-5-(7H-pyrrolo[2,3-d]pyrimidin-4-yl)-5-azaspiro[2.5]octane-8-carboxamide]	3.1 nM	21 nM		2.7 nM
C[C@H](NC(=O)[C@H]1CCN(c2ncnc3[nH]ccc23)CC12CC2)[C@@H](O)c1cccnc1 [Example 151, (8S)-N-[(1S,2S)-2-hydroxy-1-methyl-2-(3-pyridyl)ethyl]-5-(7H-pyrrolo[2,3-d]pyrimidin-4-yl)-5-azaspiro[2.5]octane-8-carboxamide]	29.7 nM	184 nM		10.9 nM
C[C@H](NC(=O)[C@H]1CCN(c2ncnc3[nH]ccc23)CC12CC2)[C@@H](O)c1ccccc1 [Example 152, (8S)-N-[(1S,2S)-2-hydroxy-1-methyl-2-phenyl-ethyl]-5-(7H-pyrrolo[2,3-d]pyrimidin-4-yl)-5-azaspiro[2.5]octane-8-carboxamide]	5.8 nM	27.7 nM		2.7 nM
